# Values quoted from earlier work as cited in PMC5040077 (The Korean Journal of Parasitology, 2016).
# How the values were obtained:
# SF-295 = conditions: cancer cell line SF-295
# HL-60 = conditions: cancer cell line HL-60
# [1] = tested on: Leishmania chagasi promastigotes
# HCT-8 = conditions: cancer cell line HCT-8
# MDA-MB-435 = conditions: cancer cell line MDA-MB-435
# [2] = tested on: Trypanosoma cruzi trypomastigotes
SMILES,cytotoxicity against SF-295 (SF-295),cytotoxicity against HL-60 (HL-60),biological activity against Leishmania chagasi promastigotes [1],cytotoxicity against HCT-8 (HCT-8),cytotoxicity against MDA-MB-435 (MDA-MB-435),activity against Trypanosoma cruzi trypomastigotes [2]
"C[C@]12CC[C@H](O)C[C@@]1(O)CC[C@@H]1[C@@H]2CC[C@]2(C)[C@@H](c3ccc(=O)oc3)CC[C@]12O [compound 1, telocinobufagin]",low cytotoxicity,low cytotoxicity,biological activity,low cytotoxicity,low cytotoxicity,only hellebrigenin was active
"C[C@]12CC[C@H]3[C@@H](CC[C@]4(O)C[C@@H](O)CC[C@]34C=O)[C@@]1(O)CC[C@@H]2c1ccc(=O)oc1 [hellebrigenin, reference compound]",–,–,biological activity,–,–,active
